# Data reported in patent US9433212B2, “Plant growth regulator and method for using the same” (NIHON NOHYAKU CO., LTD., priority 2011, dated 2016).
# Tests used:
# Type in all cases: in vivo
# Scirpophaga incertulas = assay: Test Example 1: control of Scirpophaga incertulas (dead hearts) in paddy field; conditions: for Percentage of control of S. incertulas: 43 days after transplantation; for Percentage of S. incertulas-caused dead hearts: applied once 10 days after transplantation, assessed 43 days after transplantation
# Text: (§1) Paddy rice plants were transplanted to an experimental paddy field (50 m^2, planted with 1250 paddy rice plants on average), and 10 days later, granules containing flubendiamide as an active ingredient were applied once at the predetermined doses. At 43 days after the transplantation, in 10 rice plants chosen at random, the percentage of Scirpophaga incertulas-caused dead hearts per plant, the percentage of control of Scirpophaga incertulas, the stem number per plant, and the percentage of increase in the stem number were measured. To exclude the positive effect of the insecticidal action of flubendiamide on the growth of paddy rice plants, chlorantraniliprole, which has an equivalent insecticidal action, was used as a control agrochemical.
# paddy rice plants = assay: Test Example 1: increase in stem number (promotion of tillering) of paddy rice plants; conditions: for Stem number/plant: 43 days after transplantation; for Percentage of increase in stem number: non-treatment = 100
# Text: as §1
# [1] = system: germinating rice seeds (variety: Nihonbare); assay: Test Example 2: rooting promotion and plant height growth in paddy rice plants (agar test); conditions: 25 ppm in 0.7% agar, 8 days after seeding
# Description: A 0.7% agar solution containing 25 ppm of flubendiamide was poured into a glass cylinder (3 cm diameter×10 cm) and allowed to be solidified. Onto the solidified agar, ten germinating rice seeds (variety: Nihonbare) were sown. Then, the top of the cylinder was covered with Japanese paper and the cylinder was placed in a thermostatic chamber (light-dark cycle: 16 hours of light and 8 hours of dark, relative humidity: 60 to 70%) at 25° C. At 8 days after the seeding, the lengths of the longest root (primary root) and the stem-and-leaf part extending from each seed-rice were measured and the averages were calculated. The percentages of elongation were also calculated with the proviso that the non-treatment levels were set as 100.
# [2] = system: rice plants (variety: Takanari); assay: Test Example 3: yield increase (numbers of panicles and unhulled rice grains) of paddy rice plants; conditions: for Panicle number/plant / Unhulled rice grain number/plant: harvest at 100 days; for Percentage of increase (panicle number) / Percentage of increase (unhulled rice grain number): non-treatment = 100
# Description: Rice plants (variety: Takanari) of the 6.5- to 7-leaf stage were transplanted to 1-m^2 plots of a paddy field, and 2 or 12 days later, flubendiamide granules were applied at the predetermined doses. The test was performed in 4 replications. At 100 days after the transplantation, the rice plants were harvested, the numbers of panicles and unhulled rice grains per plant were measured and the averages were calculated. The percentages of increase were also calculated with the proviso that the non-treatment levels were set as 100.
# [3] = 35 g a.i./ha granules applied 2 days after transplantation
# [4] = 35 g a.i./ha granules applied 12 days after transplantation
# [5] = 35 g a.i./ha, applied 2 days after transplantation
# [6] = 35 g a.i./ha, applied 12 days after transplantation
# [7] = 70 g a.i./ha granules applied 2 days after transplantation
# [8] = 70 g a.i./ha granules applied 12 days after transplantation
# [9] = 70 g a.i./ha, applied 2 days after transplantation
# [10] = 70 g a.i./ha, applied 12 days after transplantation
# [11] = regardless of application time and dose
smiles,measurement,setting,value
CNC(=O)c1cc(Cl)cc(C)c1NC(=O)c1cc(Br)nn1-c1ncccc1Cl [Chlorantraniliprole],Percentage of control of S. incertulas,Scirpophaga incertulas; 40 g a.i./ha,90.2%
same,Percentage of S. incertulas-caused dead hearts,Scirpophaga incertulas; 40 g a.i./ha,0.37%
same,Stem number/plant,paddy rice plants; 40 g a.i./ha,26.35 /plant
same,Percentage of increase in stem number,paddy rice plants; 40 g a.i./ha,119%
same,Percentage of increase in stem number,"paddy rice plants; 40 g a.i./ha, listed as chlorantraniliprole",about 120%
same,Increase in stem number per plant compared with the non-treatment level,paddy rice plants; chlorantraniliprole treatment plot (40 g a.i./ha),about four
"Cc1cc(C(F)(C(F)(F)F)C(F)(F)F)ccc1NC(=O)c1cccc(I)c1C(=O)NC(C)(C)CS(C)(=O)=O [Flubendiamide, 3-iodo-N′-(2-mesyl-1,1-dimethylethyl)-N-{4-[1,2,2,2-tetrafluoro-1-(trifluoromethyl)ethyl]-o-tolyl}phthalamide]",Percentage of S. incertulas-caused dead hearts,Scirpophaga incertulas; 70 g a.i./ha granules,0.48%
same,Percentage of control of S. incertulas,Scirpophaga incertulas; 70 g a.i./ha,87.3%
same,Percentage of S. incertulas-caused dead hearts,Scirpophaga incertulas; 90 g a.i./ha granules,0.34%
same,Percentage of control of S. incertulas,Scirpophaga incertulas; 90 g a.i./ha,91.0%
same,Percentage of S. incertulas-caused dead hearts,Scirpophaga incertulas; 120 g a.i./ha granules,0.30%
same,Percentage of control of S. incertulas,Scirpophaga incertulas; 120 g a.i./ha,92.1%
same,Stem number/plant,paddy rice plants; 70 g a.i./ha,39.6 /plant
same,Percentage of increase in stem number,paddy rice plants; 70 g a.i./ha,178%
same,Stem number/plant,paddy rice plants; 90 g a.i./ha,38.0 /plant
same,Percentage of increase in stem number,paddy rice plants; 90 g a.i./ha,171%
same,Stem number/plant,paddy rice plants; 120 g a.i./ha,39.15 /plant
same,Percentage of increase in stem number,paddy rice plants; 120 g a.i./ha,176%
same,Increase in stem number per plant compared with the non-treatment level,"paddy rice plants; flubendiamide treatment plots, regardless of dose (70-120 g a.i./ha)",about 17
same,Average root length,[1]; 25° C.,6.7 cm
same,Average stem-and-leaf length,[1]; 25° C.,3.9 cm
same,Percentage of elongation in root length,[1]; non-treatment = 100,160%
same,Percentage of elongation in stem-and-leaf length,[1]; non-treatment = 100,170%
same,Panicle number/plant,[2]; [3],10.4 /plant
same,Unhulled rice grain number/plant,[2]; [3],1360.3 /plant
same,Panicle number/plant,[2]; [4],11.9 /plant
same,Unhulled rice grain number/plant,[2]; [4],1528.0 /plant
same,Percentage of increase (panicle number),[2]; [5],110%
same,Percentage of increase (unhulled rice grain number),[2]; [5],110%
same,Percentage of increase (panicle number),[2]; [6],126%
same,Percentage of increase (unhulled rice grain number),[2]; [6],124%
same,Panicle number/plant,[2]; [7],11.2 /plant
same,Unhulled rice grain number/plant,[2]; [7],1484.0 /plant
same,Panicle number/plant,[2]; [8],12.5 /plant
same,Unhulled rice grain number/plant,[2]; [8],1600.0 /plant
same,Percentage of increase (panicle number),[2]; [9],119%
same,Percentage of increase (unhulled rice grain number),[2]; [9],120%
same,Percentage of increase (panicle number),[2]; [10],132%
same,Percentage of increase (unhulled rice grain number),[2]; [10],130%
same,Numbers of panicles versus non-treatment levels,[2]; [11],significantly increased
same,Numbers of unhulled rice grains versus non-treatment levels,[2]; [11],significantly increased
